Tests used:
[1] = tested on: skin of Balb/c mice transplanted to C57bl/6 mice; experiment: mice skin transplantation model (graft survival, tolerance); assay type: in vivo; details: Balb/c skin to C57bl/6; TJM2010-5 150 mg/kg/d ip, MR1 200 μg/d ip
Excerpt: 2) Application of TJM2010-5 combined with costimulatory molecules inhibitor-anti-CD154 monoclonal antibody (MR1) in mice skin transplantation model
Five groups are set in the experiment, which are: allogeneic skin grafting control group (the rejection time reported in literature is 8-10 days), TJM2010-5 group, MR1 group and combination treatment group (TJM2010-5+MR1).
The specific handling methods as follows:
Allogeneic skin grafting CMC control group: take and transplant the skin of Balb/c mice to the back of C57bl/6 mice, and provide intraperitoneal injection of 0.5% CMC on day 0 to day 3, and day 5, 7, 9, 11, 13, 15 after the operation, the does is 200 μl/day; in the homogenic skin transplantation group: take and transplant the […] of C57bl/6 mice to the back of C57bl/6 mice, and no special treatment is provided after operation.
The TJM2010-5 Group: take and transplant the skin of Balb/c mice to the back of C57bl/6 mice, and provide intraperitoneal injection of the TJM2010-5 dissolved in 0.5% CMC on day 0 to day 3, and day 5, 7, 9, 11, 13, 15 after the operation, the does is 150 mg/kg/d;
The MR1 Group: take and transplant the skin of Balb/c mice to the back of C57bl/6 mice, and provide intraperitoneal injection of MR 1 on day 0, 1, 3, 7, 14 after the operation, the does is of 200 μg/d; […]

GVHD mice = experiment: GVHD model in irradiated BALB/c mice; assay type: in vivo
Procedure: Construction of GVHD model: Apply myeloablativetotal body irradiation (TBI, 710cGy) (HI-ENERGY PRIMV S-M X-ray source) on female BALB/c (H-2d) mice, and inject the bone marrow cell of […] of C57BL/6(B6, H-2^b) mice into it within 2 hours, and inject the B6spleen cells of […] into some of these female BALB/c (H-2d) mice at some time.
Groups: GVHD mice are divided into 4 groups, where the first group is control group, and the 8 mice in the group are provided with no post operation treatment; the second group is provided with intragastric administration of TJM2010-5 of 50 mg/kg/day since the day of irradiation; the third group is the MR1 group, in which the 8 mice are provided with the treatment of MR1 of 10 mg/kg/time on day 0, 1, 2, 3, 7 and 14 after irradiation; the forth group is the combination treatment group (TJM2010-5+MR1), in which the 8 mice are treated with TJM2010-5 and MR1 by the method mentioned above.
In case TJM2010-5 is combined with MR1, it can reverse 100% of GVHD. However, other aminothiazole compounds have no or little such curative effect.

[2] = tested on: C57bl/6 mice lymphocytes with Bal b/c DC; experiment: mixed lymphocyte culture, T cell proliferation after CpG stimulated DC activation; assay type: cell-based; details: 10, 20, 40 μM, third day, FIG. 8
Procedure: 1. Take the thigh bone of Bal b/c mice, separate the bone marrow cell and add the GMS-CSF and IL-4 cytokines to cultivate marrow-derived DC.
2. Cultivate them until the sixth day, and dissociate the cells to remove immature DC. Conduct centrifugation and suspend them with 1640 medium.
3. Add mitomycin (to let the final concentration up to 50 μg/ml), and conduct water bath at 37° C. for 15 min Wash in 1640 medium and count.
4. Take the spleen of C57bl/6 mice, separate splenic lymphocytes with separating medium of mice lymphocytes and count.
5. Take the splenic lymphocytes of C57bl/6 mice and label CFSE.
6. Mix DC derived from Bal b/c and C57bl/6 mice lymphocytes for the mixed lymphocyte culture. And the grouped as follows:
Control group: Add CPG other than TJM2010-5 in the process of mixed lymphocyte culture.
Experiment group 1: Add CPG and TJM2010-5 in the process of mixed lymphocyte culture, where, the added TJM2010-5 is 10 μM.
Experiment group 2: Add CPG and TJM2010-5 in the process of mixed lymphocyte culture, where, the added TJM2010-5 is 20 μM.
Experiment group 3: Add CPG and TJM2010-5 in the process of mixed lymphocyte culture, where, the added TJM2010-5 is 40 μM.
1. Cultivate them until the third day, collect cells and detect the proliferation of C57bl/6 mice lymphopoiesis with flow cytometer.

mice with endoxemia = experiment: endoxemia lethal experiment (LPS); assay type: in vivo; details: 250 mg/kg intragastric once a day for three days, then LPS ip; FIG. 15(a)
Procedure: Part one: Observe the effect of MyD88 inhibitor on mortality of mice with endoxemia. The mice will be divided into 2 groups randomly:
Vehicle control group and experiment group (TJM2010-5 treatment group), and 20 mice in each group. Where, the TJM2010-5 treatment group is provided with the intragastric administration of TJM2010-5 (0.5% CMC solvent, 25 mg/ml) at the dose of 250 mg/kg (200 μL per mouse); the vehicle control group is provided with the intragastric administration of 0.5% CMC, 200 μL per mouse. Apply the intragastric administration once a day, and for three days successively. And on day 3, after the […], provide the intraperitoneal injection of LPS 1 hour later, then, observe the survival condition every twelve hours, and for three days.

## O=C(CCN1CCN(Cc2ccccc2)CC1)Nc1nc(-c2ccccc2)cs1 [TJM2010-5, 3-(4-benzylpiperazin-1-yl)-N-(4-phenylthiazol-2-yl) propanamide]
[1]
  effect on tolerance induction of the skin graft: no obvious effect
GVHD mice; 50 mg/kg/day intragastric since day of irradiation, FIG. 2a-A
  weight vs control group: higher than that of control group
GVHD mice; 50 mg/kg/day intragastric, FIG. 2a-B
  GVHD level vs control group: significantly lower than that of control group
GVHD mice; 50 mg/kg/day intragastric, FIG. 2a-C
  survival rate vs control group: significantly higher than that of control group
GVHD mice; FIG. 2c
  general performances of mice: close to normal mice
GVHD mice; TJM2010-5 alone or combined with MR1
  GVHD reversed: 70%
GVHD mice; each TJM2010 compound combined with MR1, 50 mg/kg/day intragastric, 8 mice per group
  survival rates of the mice after 60 days: 100%
[2]
  proliferation in T cells with increasing TJM2010-5: reduces
Mice with endoxemia
  death incurred by endotoxin: effectively delay
  lethality of endotoxin: reduce
